This is an account of results in US20090239887A1, “Method of resolution and antiviral activity of 1,3-oxathiolane nucleoside enantiomers” (Emory University, priority 1990, published 2009).

Where two headings read alike, the source gives them in different places. Where only a bound is given, the exact number is not on record here.

The target in assay [1] is reverse transcriptase activity. Conditions: read-out: EC50, concentration required to reduce the reverse transcriptase activity by 50%; cited from earlier work.
The subject of the next assay is HIV-1 (strain LAV). The experiment in a line: microbe, parasite or virus in culture. Type of assay: cell-based. From the text:
It is often desirable to screen a number of racemic mixtures of nucleosides as a preliminary step to determine which warrant further resolution into enantiomerically enriched components and evaluation of antiviral activity. The ability of nucleosides to inhibit HIV can be measured by various experimental techniques. The technique used herein, and described in detail below, measures the inhibition of viral replication in phytohemagglutinin (PHA) stimulated human peripheral blood mononuclear (PBM) cells infected with HIV-1 (strain LAV). The amount of virus produced is determined by measuring the virus-coded reverse transcriptase enzyme. The amount of enzyme produced is proportional to the amount of virus produced.
A. Three-day-old phytohemagglutinin-stimulated PBM cells (10^6 cells/ml) from hepatitis B and HIV-1 seronegative healthy donors were infected with HIV-1 (strain LAV) at a concentration of about 100 times the 50% tissue culture infectious dose (TICD 50) per ml and cultured in the presence and absence of various concentrations of antiviral compounds.
B. Approximately one hour after infection, the medium, with the compound to be tested (2 times the final concentration in medium) or without compound, was added to the flasks (5 ml; final volume 10 ml). AZT was used as a positive control.
C. The cells were exposed to the virus (about 2×10^5 dpm/ml, as determined by reverse transcriptase assay) and then placed in a CO2 incubator. HIV-1 (strain LAV) was obtained from the Center for Disease Control, Atlanta, Ga. The methods used for culturing the PBM cells, harvesting the virus and determining the reverse transcriptase activity were those described by McDougal et al. (J. Immun. Meth. 76, 171-183, 1985) and Spira et al. (J. Clin. Meth. 25, 97-99, 1987), except that fungizone was not included in the medium (see Schinazi, et al., Antimicrob. Agents Chemother. 32, 1784-1787 (1988); Id., 34:1061-1067 (1990)).
D. On day 6, the cells and supernatant were transferred to a 15 ml tube and centrifuged at about 900 g for 10 minutes. Five ml of supernatant were removed and the virus was concentrated by centrifugation at 40,000 rpm for 30 minutes (Beckman 70.1 Ti rotor). The solubilized virus pellet was processed for determination of the levels of reverse transcriptase. Results are expressed in dpm/ml of sampled supernatant. Virus from smaller volumes of supernatant (1 ml) can also be concentrated by centrifugation prior to solubilization and determination of reverse transcriptase levels.

Where [2] appears, read: Human immunodeficiency virus 1, PBMC, comparison nucleosides, source not stated, read-out: EC50.
Setting [3] is: human PBM cells infected with HIV-1, enantiomers isolated by chiral HPLC (Example 3), read-out: EC50.

On to `Nc1nc2c(ncn2[C@H]2C=C[C@@H](CO)O2)c(=O)[nH]1` [(+)-enantiomer of carbovir, 2′,3′-didehydro-2′,3′-dideoxyguanosine], for which the EC50 in assay [1] is over 60000 nM.
In the case of `Nc1ccn([C@H]2CC[C@@H](CO)O2)c(=O)n1` [DDC, dideoxycytidine, reference compound], in the assay on HIV-1 (strain LAV) (setting [2]), the EC50 amounted to 11 nM.
For `Nc1nc2c(ncn2[C@H]2C=C[C@@H](CO)O2)c(=O)[nH]1` [(−)-enantiomer of carbovir, 2′,3′-didehydro-2′,3′-dideoxyguanosine], the EC50 in assay [1] was 800 nM.
In the case of `Nc1ccn(C2CSC(CO)O2)c(=O)n1` (stereo not drawn) [BCH-189 (+), 2-hydroxymethyl-5-(cytosin-1-yl)-1,3-oxathiolane], the DPM/ml is reported as 71,795 DPM/ml with HIV-1 (strain LAV) (0.00085 μM); 99,710 DPM/ml with HIV-1 (strain LAV) (0.00425 μM); 68,355 DPM/ml in the assay on HIV-1 (strain LAV) (0.0085 μM); 82,845 DPM/ml in the assay on HIV-1 (strain LAV) (0.0415 μM); 65,100 DPM/ml with HIV-1 (strain LAV) (0.0825 μM); 43,260 DPM/ml with HIV-1 (strain LAV) (0.412 μM). Also, in the assay on HIV-1 (strain LAV) (Human immunodeficiency virus 1, PBMC, 0.00085 μM, read-out: % Inhibition (Corrected)), the inhibition (usually the change of the read-out against control, counted positive when it falls) at 0.00085 µM is 28.7%. In addition, the inhibition at 0.00425 µM in the assay on HIV-1 (strain LAV) (Human immunodeficiency virus 1, PBMC, 0.00425 μM, read-out: % Inhibition (Corrected)) was -2.1%. The inhibition at 0.0085 µM in the assay with HIV-1 (strain LAV) (Human immunodeficiency virus 1, PBMC, 0.0085 μM, read-out: % Inhibition (Corrected)) came out at 32.5%. Also, the inhibition at 0.0415 µM with HIV-1 (strain LAV) (Human immunodeficiency virus 1, PBMC, 0.0415 μM, read-out: % Inhibition (Corrected)) came out at 16.5%. Moreover, the inhibition at 0.0825 µM in the assay with HIV-1 (strain LAV) (Human immunodeficiency virus 1, PBMC, 0.0825 μM, read-out: % Inhibition (Corrected)) came out at 36.1%. Also, in the assay on HIV-1 (strain LAV) (Human immunodeficiency virus 1, PBMC, 0.412 μM, read-out: % Inhibition (Corrected)), the inhibition at 0.412 µM was found to be 60.3%. Also, the EC50 in the assay on HIV-1 (strain LAV) (setting [3]) stood at 230 nM.
As for `Nc1nc(=O)n(C2CSC(CO)O2)cc1F` (single isomer, unassigned; (+)) [DLS-059 (+), (+)-2-hydroxymethyl-5-(5-fluorocytosin-1-yl)-1,3-oxathiolane], the DPM/ml with HIV-1 (strain LAV) (0.001 μM, listed as FTC (+)) is recorded as 94,340 DPM/ml; in the assay on HIV-1 (strain LAV) (0.005 μM, listed as FTC (+)), 107,430 DPM/ml; in the assay with HIV-1 (strain LAV) (0.01 μM, listed as FTC (+)), 99,465 DPM/ml; with HIV-1 (strain LAV) (0.05 μM, listed as FTC (+)) it was 87,120 DPM/ml; in the assay with HIV-1 (strain LAV) (0.1 μM, listed as FTC (+)), 86,340 DPM/ml; in the assay on HIV-1 (strain LAV) (0.5 μM, listed as FTC (+)), 33,225 DPM/ml. The “% Inhibition (Corrected)” value with HIV-1 (strain LAV) (0.001 μM, listed as FTC (+), 0.001 µM) is 3.8%; with HIV-1 (strain LAV) (0.005 μM, listed as FTC (+), 0.005 µM), −10.6%; in the assay with HIV-1 (strain LAV) (0.01 μM, listed as FTC (+), 0.01 µM), −1.8%; in the assay on HIV-1 (strain LAV) (0.05 μM, listed as FTC (+), 0.05 µM), 11.8%; with HIV-1 (strain LAV) (0.1 μM, listed as FTC (+), 0.1 µM), 12.7%; in the assay on HIV-1 (strain LAV) (0.5 μM, listed as FTC (+), 0.5 µM) it was 71.4%. Besides, the EC50 in the assay on HIV-1 (strain LAV) (summary range, listed as (+)-enantiomer of FTC, read-out: EC50 against HIV) is 280 to 840 nM.
Consider `Nc1ncnc2c1ncn2[C@H]1CC[C@@H](CO)O1` [DDA, 2′,3′-dideoxyadenosine, reference compound], for which the EC50 in the assay with HIV-1 (strain LAV) (setting [2]) came out at 910 nM.
Regarding `Cc1cn([C@H]2CC[C@@H](CO)O2)c(=O)[nH]c1=O` [DDT, 3′-dideoxythymidine, reference compound], the EC50 in the assay with HIV-1 (strain LAV) (comparison nucleosides, source not stated, read-out: EC50) was determined as 170 nM.
In the case of `Nc1ccn(C2CSC(CO)O2)c(=O)n1` (stereo not drawn) [BCH-189 (−), 2-hydroxymethyl-5-(cytosin-1-yl)-1,3-oxathiolane], the DPM/ml in the assay with HIV-1 (strain LAV) (0.001 μM) is on record as 76,400 DPM/ml; in the assay with HIV-1 (strain LAV) (0.005 μM) it was 66,875 DPM/ml; in the assay with HIV-1 (strain LAV) (0.01 μM), 54,170 DPM/ml; in the assay on HIV-1 (strain LAV) (0.05 μM), 57,615 DPM/ml; in the assay with HIV-1 (strain LAV) (0.1 μM), 34,705 DPM/ml; with HIV-1 (strain LAV) (0.5 μM), 15,250 DPM/ml. The inhibition at 0.001 µM in the assay on HIV-1 (strain LAV) (Human immunodeficiency virus 1, PBMC, 0.001 μM, read-out: % Inhibition (Corrected)) was 23.6%. Further, the inhibition at 0.005 µM with HIV-1 (strain LAV) (Human immunodeficiency virus 1, PBMC, 0.005 μM, read-out: % Inhibition (Corrected)) worked out at 34.2%. In addition, the inhibition at 0.01 µM in the assay on HIV-1 (strain LAV) (Human immunodeficiency virus 1, PBMC, 0.01 μM, read-out: % Inhibition (Corrected)) is 48.2%. Besides, the inhibition at 0.05 µM with HIV-1 (strain LAV) (Human immunodeficiency virus 1, PBMC, 0.05 μM, read-out: % Inhibition (Corrected)) worked out at 44.4%. Besides, the inhibition at 0.1 µM with HIV-1 (strain LAV) (Human immunodeficiency virus 1, PBMC, 0.1 μM, read-out: % Inhibition (Corrected)) stood at 69.7%. In the assay with HIV-1 (strain LAV) (Human immunodeficiency virus 1, PBMC, 0.5 μM, read-out: % Inhibition (Corrected)), the inhibition at 0.5 µM was found to be 91.2%. In addition, the EC50 in the assay on HIV-1 (strain LAV) (setting [3]) worked out at 16 nM.
For `[N-]=[N+]=N[C@H]1C[C@H](n2ccc(=O)[nH]c2=O)O[C@@H]1CO` [AZDU, 3′-azido-2′,3′-dideoxyuridine, reference compound], in the assay on HIV-1 (strain LAV) (setting [2]), the EC50 is 180 to 460 nM.
